One block for each molecule: values may come before it. *1 amine or outer side, *2 acyl side, *3 side chain or, on linkers, in order; H or OH if unused. Where a SMILES comes first, the peptide text is derived from it. Where no end group is shown, it is not given here. Side-chain parts run from the residue outwards. [ ]: non-standard residue; d: D form. The star is where a group is joined. NMeF = CN[C@@H](Cc1ccccc1)C(=O)O; NH(2-Me-phenyl) = Cc1ccccc1N*; Boc = CC(C)(C)OC(=O)*; CO = O=C([*:1])[*:2]; Ahx = NCCCCCC(=O)O
Legend:
GPR173 [1] = molecular target: T1, GPR173 (Homo sapiens, UniProt Q9NS66); experiment: Antagonism of CCK1R/2R antagonists to GPR173; assay type: cell-based
T1 sequence (Q9NS66 whole entry, species assumed): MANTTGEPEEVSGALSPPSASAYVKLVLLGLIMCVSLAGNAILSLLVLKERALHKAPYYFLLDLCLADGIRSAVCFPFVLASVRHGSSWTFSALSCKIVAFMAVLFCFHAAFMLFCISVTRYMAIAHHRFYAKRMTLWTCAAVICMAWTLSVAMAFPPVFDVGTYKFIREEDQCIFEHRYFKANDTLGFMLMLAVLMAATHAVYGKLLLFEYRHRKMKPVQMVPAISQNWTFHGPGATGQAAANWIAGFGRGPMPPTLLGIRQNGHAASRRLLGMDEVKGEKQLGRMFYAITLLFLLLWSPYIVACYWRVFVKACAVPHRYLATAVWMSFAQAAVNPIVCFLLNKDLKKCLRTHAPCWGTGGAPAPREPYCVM
Experimental: (§1) All measurements of calcium imaging are performed by EnVision 2104 Multilabel Reader (Perkin Elmer, Waltham, Massachusetts, US, https://www.perkinelmer.com, excitation: 485 nm and emission: 535 nm). […] Cells are cultured at 37° C., 5% CO2 in DMEM/F-12 medium (Thermo Fisher, Waltham, MA, US, https://www.thermofisher.cn) containing 10% FBS (Natocor-Industria Biológica) and washed with DMEM/F-12 medium once after overnight incubation.

GPR173 [2] = molecular target: T1, GPR173; experiment: Calcium imaging assay in CHO-GPR173 cell line; assay type: cell-based; details: for calcium signal in CHO-GPR173 cells: after incubation with the peptide
Experimental: as §1

[3] = tested on: pyramidal neurons (CCK-GABA synapses) in the AC; experiment: In vitro patch-clamp recording of laser-evoked IPSC in pyramidal neurons of auditory cortex brain slices; assay type: cell-based, CCK-Cre mice
Experimental: In the experiments of FIGS. 2-3, a protective cutting and recovery method is adopted in preparing acute brain slices of CCK-Cre, PV-Cre, CCK-KO, and CCK1R/2R-KO mice to achieve a higher success rate for patch-clamp, as previously described in Chen, X., et al., Natl. Acad. Sci., Vol. 116, pp. 2019. Briefly, the anaesthetized mice are perfused transcardially with NMDG-aCSF (92 mM NMDG, 2.5 mM KCl, 1.25 mM NaH2PO4, 30 mM NaHCO3, 20 mM HEPES, 25 mM glucose, 2 mM thiourea, 5 mM Na-ascorbate, 3 mM Na-pyruvate, 0.5 mM CaCl2·4H2O, and 10 mM MgSO4·7H2O; pH 7.3-7.4), and the brain is extracted and cut into 300 μm-thick sections. The slices are transferred to NMDG-aCSF for 10 min at 32-34° C. to allow protective recovery and then to room-temperature HEPES-aCSF (92 mM NaCl, 2.5 mM KCl, 1.25 mM NaH2PO4, 30 mM NaHCO3, 20 mM HEPES, 25 mM glucose, 2 mM thiourea, 5 mM Na-ascorbate, 3 mM Na-pyruvate, 2 mM CaCl2·4H2O, and 2 mM MgSO4·7H2O; pH 7.3-7.4) for at least 1 h before recording.
Whole-cell recordings (with Multiclamp 700B amplifier and Digital 1440A digitizer, Molecular Devices, www.moleculardevices.com, Menlo Park, California, USA), targeting the AC of the brain slices in room-temperature aCSF (119 mM NaCl, 2.5 mM KCl, 1.25 mM NaH2PO4, 24 mM NaHCO3, 12.5 mM glucose, 2 mM CaCl2·4H2O and 2 mM MgSO4·7H2O, ˜25° C.) are performed. Patch pipettes are pulled with resistance between 3-5 MQ from borosilicate glass (WPI, World Precision Instruments; UK; httpss://www.wpiinc.com/) on a Sutter-87 puller (Sutter Instrument; CA, US, https://www.sutter.com/). The intracellular solution contains: 145 mM K-Gluconate, 10 mM HEPES, 1 mM EGTA, 2 mM Mg-ATP, 0.3 mM Na2-GTP, and 2 mM MgCl2; pH 7.3; 290-300 mOsm. Similarly, after Giga-Ohm seal formation, recordings are made and then terminated if Rs changes more than 20%. Pyramidal neurons are selected based on the pyramidal-like shape and the firing pattern of regular spiking by injecting step currents.
Laser stimulation is applied through an optical fiber placed ˜200 μm from the recording neuron using Aurora-220 (473 nm, NEWDOON, Changchun, China; http://www.newdoon.com/) to activate ChR2^+ neurons (GABAergic). In the examples, only neurons that respond to the laser pulse is recruited. HFLS (10-pulse burst at 40 Hz, repeated for 10 trials) or Low-frequency Laser Stimulation (LFLS, 1 Hz, 100 pulses) with a 15-s interval is delivered. Inhibitory postsynaptic currents (IPSCs) to the laser stimulation (1 pulse per 15 s, 5 ms in duration) under voltage-clamp recording mode (holding at −60 mV to −50 mV) are recorded for 5 min as the baseline before and for 25 min after the HFLS or LFLS.
For the normalization of recorded IPSC in the CCK-Cre, PV-Cre, CCK-KO, and CCK1R/2R-KO mice, only the patched neurons are recruited when the IPSC is greater than 35 pA.

Flag-GPR173 = molecular target: T2, Flag-GPR173 (Homo sapiens, UniProt Q9NS66); experiment: Cell surface binding assay, HEK293T cells transfected with Flag-GPR173; details: CCK-binding assay, FIG. 4B
T2 construct: host or cells: HEK293T
T2 sequence (Q9NS66 whole entry): as the sequence (Q9NS66 whole entry, species assumed) above
Experimental: HEK293T cells are transfected with pCDNA3.1(+)-Flag-GPCR (purchased from Public Protein/Plasmid Library, Nanjing, China, http://ppl.biogot.com; or home-made by us based on pCDNA3.1(+) backbone). The cells are incubated with HA-ε-Ahx-ε-Ahx or HA-(ε-Ahx)2-CCK8s dissolved in HHBS solution (Hank's solution including 20 mM N-2-hydroxyethylpiperazine-N′-2-ethanesulfonic acid (HEPES), pH=7.4) for 30 min at room temperature, 48 h after transfection by Lipo6000 (Beyotime Biotechnology, Shanghai, China, https://www.beyotime.com/). After three washes with HHBS, cells are fixed in 4% paraformaldehyde and 4% sucrose in PBS for 15 min at room temperature. Cells are blocked in 5% normal goat serum in PBS, and staining is performed in detergent-free conditions without cell permeabilization after three washes by PBS. Primary antibody rabbit anti-HA (CST, 3724 Boston, US, https://www.cellsignal.com), anti-GPR173 (PA5-50976, ThermoFisher, Waltham, MA, US, https://www.thermofisher.cn) and mouse anti-Flag (CST-8146, Boston, US, https://www.cellsignal.com) are used to detect HA and Flag tags. For binding assay of pCDNA3.1(+)-AcGFP-CCK1R, only rabbit anti-HAprimary antibody is used to detectHAtag. Images are captured on a Leica SP8 confocal microscope (Leica Microsystems, Danaher Corporation, US, https://www.leica-microsystems.com/). […]

[4] = molecular target: T3, Flag-HTR1B on transfected HEK293T cells (UniProt P28222 1-390); experiment: cell surface binding assay on HEK293T cells transfected with Flag-tagged GPCRs, anti-HA and anti-Flag staining, confocal
T3 construct: whole, on cells
T3 sequence (P28222 whole entry): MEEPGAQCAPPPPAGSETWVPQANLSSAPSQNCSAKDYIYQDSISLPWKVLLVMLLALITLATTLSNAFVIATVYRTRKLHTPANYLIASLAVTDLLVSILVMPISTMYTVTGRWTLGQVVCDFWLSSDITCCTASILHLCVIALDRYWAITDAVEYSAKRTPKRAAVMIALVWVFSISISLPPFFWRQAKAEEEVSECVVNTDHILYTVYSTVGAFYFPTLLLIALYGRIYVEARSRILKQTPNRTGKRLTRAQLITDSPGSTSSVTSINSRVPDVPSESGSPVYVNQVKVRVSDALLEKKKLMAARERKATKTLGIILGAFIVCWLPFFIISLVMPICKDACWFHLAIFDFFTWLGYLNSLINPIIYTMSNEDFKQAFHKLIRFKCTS
Experimental: HEK293T cells are transfected with pCDNA3.1(+)-Flag-GPCR (purchased from Public Protein/Plasmid Library, Nanjing, China, http://ppl.biogot.com; or home-made by us based on pCDNA3.1(+) backbone). […] After three washes with HHBS, cells are fixed in 4% paraformaldehyde and 4% sucrose in PBS for 15 min at room temperature. Cells are blocked in 5% normal goat serum in PBS, and staining is performed in detergent-free conditions without cell permeabilization after three washes by PBS. […] For binding assay of pCDNA3.1(+)-AcGFP-CCK1R, only rabbit anti-HAprimary antibody is used to detectHAtag. Images are captured on a Leica SP8 confocal microscope (Leica Microsystems, Danaher Corporation, US, https://www.leica-microsystems.com/). Images within each experiment are collected using identical laser-power, offset, and gain.

IC50 (GPR173 [1]): 3100 nM
Molecule: CNc1cccc(NC(=O)N[C@@H]2N=C(c3ccccn3)c3ccccc3N(CC(=O)C(C)(C)C)C2=O)c1 [YF476]

activation of the CHO-GPR173 cell line (GPR173 [2]; even at 100 μM): does not activate
Molecule: Cc1ccccc1NC(=O)NCCCC[C@H](NC(=O)[C@H](Cc1c[nH]c2ccccc12)NC(=O)OC(C)(C)C)C(=O)N[C@@H](CC(=O)O)C(=O)N(C)[C@@H](Cc1ccccc1)C(N)=O [A-71623] (Boc-WK([CO-NH(2-Me-phenyl)])D[NMeF]-NH2)

More lines, now with the values behind:

Molecule: CCCCCN(CCCOC)C(=O)C(CCC(=O)O)NC(=O)c1ccc(Cl)c(Cl)c1 (centres unmarked) [Loxiglumide]
IC50 (GPR173 [1]): 715 ± 99.4 nM

Molecule: Cc1cccc(NC(=O)N[C@@H]2N=C(c3ccccc3)c3ccccc3N(C)C2=O)c1 [L365,260]
IC50 (GPR173 [1]): 16800 nM

Molecule: CCK4: CCK2R-selective agonist
calcium signal in CHO-GPR173 cells (GPR173 [2]): evokes no response

Molecule: CN1C(=O)[C@@H](NC(=O)c2cc3ccccc3[nH]2)N=C(c2ccccc2)c2ccccc21 [Devazepide]
IC50 (GPR173 [1]): 12.3 ± 3.41 nM
blockade of HFLS-induced iLTP ([3]; Devazepide 60 nM in bath solution): entirely blocks the iLTP
normalized IPSC 20-25 min after Devazepide infusion and the HFLS ([3]; Devazepide 60 nM in bath solution, baseline 100.18±1.91, HFLS alone 183.70±6.25%, n=8): 103.24±2.54%

Molecule: Phoenixin (DVQPPGLKVWSDPF) [PNX, Phoenixin, peptide claimed in the literature to act through GPR173]
calcium signal in CHO-GPR173 cells (GPR173 [2]): no calcium signal

Molecule: CCK8s
calcium signal in CHO-GPR173 cells (GPR173 [2]): strong calcium response
normalized IPSC amplitude 25-30 min after CCK8s+1 Hz ([3]; 200-nM CCK8s bath application 3 min before LFLS (1 Hz, 100 pulses), baseline 100.00±2.53, n=8 neurons): 161.84±4.38%
iLTP after CCK8s followed by LFLS ([3]; CCK8s+1 Hz group vs aCSF+1 Hz): large iLTP
binding affinity of Flag-GPR173 with CCK8s (Flag-GPR173): prominent binding affinity

B1: HA2A8s (HA-ε-Ahx-ε-Ahx-CCK8s) (peptide, UniProt P06307 96-103, looked up, not shown: small tags and cut ends)
peptide: {HA tag-Ahx-Ahx}-DYMGWMDF
modifications: ends and bridges not checked; also: sulphated CCK8, site not given here
notes: Chemically synthesised; also called HA-(ε-Ahx)2-CCK8s; HA-labeled CCK8s
binding result [4]: no binding
